Assay results published in ChEMBL document CHEMBL4359906, “Design and synthesis of new N-terminal fatty acid modified-antimicrobial peptide analogues with potent in vitro biological activity” (Eur J Med Chem, 2019).
≈ marks a conversion by molar mass, not a printed value. Calls of active or inactive are those of the source. No cut-off for these calls is given here.

What was measured:
Escherichia coli [1] = experiment: Ratio of antibacterial activity against Escherichia coli ATCC 25922 in presence of FeCl3 to antibacterial activity against Escherichia coli ATCC 25922; format: functional
Escherichia coli [2] = experiment: Antimicrobial activity against Escherichia coli ATCC 25922 at 1 mM preincubated for 6 hrs in presence of 2000 ug/ml trypsin and measured after 18 hrs by microplate reader analysis; format: functional, organism-based
Staphylococcus aureus [3] = experiment: Antibacterial activity against methicillin-resistant Staphylococcus aureus 936 after 18 hrs by CLSI based broth microdilution method; format: functional; conditions: Staphylococcus aureus, 936, 18 h
Klebsiella pneumoniae [4] = experiment: Potentiation of polymyxin B-induced antibacterial activity against Klebsiella pneumoniae ATCC 700603 assessed as FICI after 18 hrs by checker board assay; format: functional
Escherichia coli [5] = experiment: Induction of outer membrane permeabilization in Escherichia coli ATCC 25922 measured up to 12 mins by NPN-dye based assay; format: organism-based
Escherichia coli [6] = experiment: Ratio of MIC for Escherichia coli ATCC 25922 preincubated for 6 hrs in presence of 10% mouse serum and measured after 18 hrs to MIC for antibacterial activity against Escherichia coli ATCC 25922 after 18 hrs; format: functional
Pseudomonas aeruginosa [7] = experiment: Antibiofilm activity against Pseudomonas aeruginosa ATCC 27853 at 0.25 to 2 times of MIC after 24 hrs by crystal violet staining based assay; format: functional, organism-based
Escherichia coli [8] = experiment: Disruption of membrane integrity in Escherichia coli ATCC 25922 assessed as membrane damage by measuring PI fluorescence at 2 times of MIC incubated for 1 hr by PI dye based flow cytometric analysis (reference value: 1.35%); format: functional
Pseudomonas aeruginosa [9] = experiment: Potentiation of rifampicin-induced antibacterial activity against Pseudomonas aeruginosa ATCC 27853 assessed as FICI after 18 hrs by checker board assay; format: functional
Escherichia coli [10] = experiment: Induction of membrane disruption in Escherichia coli ATCC 25922 assessed as corrugated membrane surface at 4 times of MIC after 2 hrs by SEM analysis; format: functional, organism-based
Escherichia coli [11] = experiment: Antibacterial activity against Escherichia coli ATCC 25922 at 0.5 times MIC incubated for 18 hrs measured for 15 passages by CLSI based broth microdilution method; format: functional, organism-based
Escherichia coli [12] = experiment: Disruption of membrane integrity in Escherichia coli ATCC 25922 assessed as membrane damage by measuring PI fluorescence at 4 times of MIC incubated for 1 hr by PI dye based flow cytometric analysis (reference value: 1.35%); format: functional
Escherichia coli [13] = experiment: Induction of membrane disruption in Escherichia coli ATCC 25922 assessed as fracture in membrane at 4 times of MIC after 2 hrs by SEM analysis; format: functional, organism-based
Escherichia coli [14] = experiment: Potentiation of polymyxin B-induced antibacterial activity against Escherichia coli ATCC 25922 assessed as FICI after 18 hrs by checker board assay; format: functional
Escherichia coli [15] = experiment: Ratio of antibacterial activity against Escherichia coli ATCC 25922 in presence of MgCl2 to antibacterial activity against Escherichia coli ATCC 25922; format: functional
Escherichia coli [16] = experiment: Induction of ROS generation in Escherichia coli ATCC 25922; format: functional, organism-based
Staphylococcus aureus [17] = experiment: Antibacterial activity against Staphylococcus aureus ATCC 25923 after 18 hrs by CLSI based broth microdilution method; format: functional; conditions: ATCC 25923, 18 h
Bacillus subtilis = experiment: Antibacterial activity against Bacillus subtilis ATCC 23857 after 18 hrs by CLSI based broth microdilution method; format: functional; conditions: ATCC 23857, 18 h
Escherichia coli [18] = experiment: Antibacterial activity against Escherichia coli ATCC 25922 after 18 hrs by CLSI based broth microdilution method; format: functional; conditions: ATCC 25922, 18 h
Staphylococcus aureus [19] = experiment: Antibiofilm activity against Staphylococcus aureus ATCC 25923 after 24 hrs by crystal violet staining based assay; format: functional, organism-based
Escherichia coli [20] = experiment: Ratio of antibacterial activity against Escherichia coli ATCC 25922 in presence of NaCl to antibacterial activity against Escherichia coli ATCC 25922; format: functional
Staphylococcus aureus [21] = experiment: Ratio of antibacterial activity against Staphylococcus aureus ATCC 25923 in presence of FeCl3 to antibacterial activity against Staphylococcus aureus ATCC 25923; format: functional
Pseudomonas aeruginosa [22] = experiment: Antibiofilm activity against Pseudomonas aeruginosa ATCC 27853 after 24 hrs by crystal violet staining based assay; format: functional, organism-based
Escherichia coli [23] = experiment: Induction of inner membrane permeabilization in Escherichia coli ATCC 43837 assessed as increase in ONPG release at 1 to 2 times of MIC by ONPG dye based assay; format: organism-based
Erythrocyte = experiment: Hemolytic activity in human RBC measured after 1 hr by microplate reader analysis; format: ADME, cell-based
Escherichia coli [24] = experiment: Antibiofilm activity against Escherichia coli ATCC 25922 after 24 hrs by crystal violet staining based assay; format: functional, organism-based
Escherichia coli [25] = experiment: Induction of inner membrane permeabilization in Escherichia coli ATCC 43837 assessed as increase in ONPG release at 4 times of MIC by ONPG dye based assay; format: organism-based
Escherichia coli [26] = experiment: Induction of membrane disruption in Escherichia coli ATCC 25922 assessed as degeneration in membrane at 4 times of MIC after 2 hrs by SEM analysis; format: functional, organism-based
Escherichia coli [27] = experiment: Antibacterial activity against Escherichia coli ATCC 43837 after 18 hrs by CLSI based broth microdilution method; format: functional; conditions: ATCC 43837, 18 h
Pseudomonas aeruginosa [28] = experiment: Antibacterial activity against Pseudomonas aeruginosa ATCC 27853 after 18 hrs by CLSI based broth microdilution method; format: functional; conditions: ATCC 27853, 18 h
Escherichia coli [29] = experiment: Disruption of membrane integrity in Escherichia coli ATCC 25922 assessed as membrane damage by measuring PI fluorescence incubated for 1 hr by PI dye based flow cytometric analysis; format: functional, organism-based
[30] = Selectivity index, ratio of MHC10 for human RBC to geometric mean of peptide MIC for gram positive bacteria; format: toxicity; conditions: human red blood cells, read-out: Selectivity Index
DNA = experiment: Binding affinity to Escherichia coli ATCC 25922 genomic DNA after 30 mins by agarose gel electrophoresis; format: nucleic-acid assay
Escherichia coli [31] = experiment: Potentiation of rifampicin-induced antibacterial activity against Escherichia coli ATCC 25922 assessed as FICI after 18 hrs by checker board assay; format: functional
Escherichia coli [32] = experiment: Antimicrobial activity against Escherichia coli ATCC 25922 at 1 mM preincubated for 6 hrs in presence of 2 ug/ml chymotrypsin and measured after 18 hrs by microplate reader analysis; format: functional, organism-based
Staphylococcus aureus [33] = experiment: Ratio of antibacterial activity against Staphylococcus aureus ATCC 25923 in presence of KCl to antibacterial activity against Staphylococcus aureus ATCC 25923; format: functional
Staphylococcus aureus [34] = experiment: Ratio of antibacterial activity against Staphylococcus aureus ATCC 25923 in presence of NaCl to antibacterial activity against Staphylococcus aureus ATCC 25923; format: functional
Klebsiella pneumoniae [35] = experiment: Potentiation of rifampicin-induced antibacterial activity against Klebsiella pneumoniae ATCC 700603 assessed as FICI after 18 hrs by checker board assay; format: functional
Pseudomonas aeruginosa [36] = experiment: Potentiation of polymyxin B-induced antibacterial activity against Pseudomonas aeruginosa ATCC 27853 assessed as FICI after 18 hrs by checker board assay; format: functional
Escherichia coli [37] = experiment: Antibiofilm activity against Escherichia coli ATCC 25922 at 2 times MIC after 24 hrs by crystal violet staining based assay; format: functional, organism-based
Staphylococcus aureus [38] = experiment: Ratio of antibacterial activity against Staphylococcus aureus ATCC 25923 in presence of MgCl2 to antibacterial activity against Staphylococcus aureus ATCC 25923; format: functional

CCCCCCCCCCCC(=O)NC(Cc1cn(CCCC[C@H](NC(C)=O)C(=O)NCC(=O)N[C@@H](CC(C)C)C(=O)N[C@@H](CC(C)C)C(=O)N[C@H](CCCCN)C(=O)N[C@@H](CCCNC(=N)N)C(=O)N[C@H](C(=O)N[C@H](CCCCN)C(=O)N[C@H](C(=O)N[C@@H](CC(C)C)C(=O)N[C@@H](CC(C)C)C(N)=O)[C@@H](C)O)[C@@H](C)CC)nn1)C(=O)NCC(=O)N[C@@H](CC(C)C)C(=O)N[C@@H](CC(C)C)C(=O)N[C@H](CCCCN)C(=O)N[C@@H](CCCNC(=N)N)C(=O)N[C@H](C(=O)N[C@H](CCCCN)C(=O)N[C@H](C(=O)N[C@@H](CC(C)C)C(=O)N[C@@H](CC(C)C)C(N)=O)[C@@H](C)O)[C@@H](C)CC (some centres not stated)
Ratio (Escherichia coli [1]): 2 - 4 | Activity (Escherichia coli [2]): Active | MIC (Staphylococcus aureus [3]): 16 µM (≈ 44.5 µg/mL) | fractional inhibitory concentration index (FICI) (Klebsiella pneumoniae [4]): 0.3125 | Activity (Escherichia coli [5]): Dose-dependent effect | Ratio (Escherichia coli [6]): 4 | inhibition (Pseudomonas aeruginosa [7]): Active | Activity (Escherichia coli [8]): 60.7% | fractional inhibitory concentration index (FICI) (Pseudomonas aeruginosa [9]): 0.3125 | Activity (Escherichia coli [10]): Active | Activity (Escherichia coli [11]): Active | Activity (Escherichia coli [12]): 88.9% | Activity (Escherichia coli [13]): Active | fractional inhibitory concentration index (FICI) (Escherichia coli [14]): 0.3125 | Ratio (Escherichia coli [15]): 2 - 4 | Activity (Escherichia coli [16]): inactive | MIC (Staphylococcus aureus [17]): 8 µM (≈ 22.2 µg/mL) | MIC (Bacillus subtilis): 2 µM (≈ 5.56 µg/mL) | MIC (Escherichia coli [18]): 8 µM (≈ 22.2 µg/mL) | inhibition (Staphylococcus aureus [19]): Dose-dependent effect | Ratio (Escherichia coli [20]): 2 - 4 | Ratio (Staphylococcus aureus [21]): 2 - 4 | inhibition (Pseudomonas aeruginosa [22]): Dose-dependent effect | Activity (Escherichia coli [23]): Active | MHC10 (Erythrocyte): 16 µM | inhibition (Escherichia coli [24]): Dose-dependent effect | Activity (Escherichia coli [25]): Active | Activity (Escherichia coli [26]): Active | MIC (Escherichia coli [27]): 8 µM (≈ 22.2 µg/mL) | MIC (Pseudomonas aeruginosa [28]): 8 µM (≈ 22.2 µg/mL) | Activity (Escherichia coli [29]): Dose-dependent effect | selectivity ratio [30]: 1.85 | Activity (DNA): Dose-dependent effect | fractional inhibitory concentration index (FICI) (Escherichia coli [31]): 0.5625 | Activity (Escherichia coli [32]): Active | Ratio (Staphylococcus aureus [33]): 2 - 4 | Ratio (Staphylococcus aureus [34]): 2 - 4 | fractional inhibitory concentration index (FICI) (Klebsiella pneumoniae [35]): 0.5 | fractional inhibitory concentration index (FICI) (Pseudomonas aeruginosa [36]): 0.1875 | inhibition (Escherichia coli [37]): Active | Ratio (Staphylococcus aureus [38]): 2 - 4

CCCC(=O)NC(Cc1cn(CCCC[C@H](NC(C)=O)C(=O)NCC(=O)N[C@@H](CC(C)C)C(=O)N[C@@H](CC(C)C)C(=O)N[C@H](CCCCN)C(=O)N[C@@H](CCCNC(=N)N)C(=O)N[C@H](C(=O)N[C@H](CCCCN)C(=O)N[C@H](C(=O)N[C@@H](CC(C)C)C(=O)N[C@@H](CC(C)C)C(N)=O)[C@@H](C)O)[C@@H](C)CC)nn1)C(=O)NCC(=O)N[C@@H](CC(C)C)C(=O)N[C@@H](CC(C)C)C(=O)N[C@H](CCCCN)C(=O)N[C@@H](CCCNC(=N)N)C(=O)N[C@H](C(=O)N[C@H](CCCCN)C(=O)N[C@H](C(=O)N[C@@H](CC(C)C)C(=O)N[C@@H](CC(C)C)C(N)=O)[C@@H](C)O)[C@@H](C)CC (some centres not stated)
Ratio (Escherichia coli [1]): 2 - 4 | Activity (Escherichia coli [2]): Active | MIC (Staphylococcus aureus [3]): 128 µM (≈ 342 µg/mL) | fractional inhibitory concentration index (FICI) (Klebsiella pneumoniae [4]): 0.1875 | Activity (Escherichia coli [5]): Dose-dependent effect | Ratio (Escherichia coli [6]): 1 | inhibition (Pseudomonas aeruginosa [7]): Active | Activity (Escherichia coli [8]): 21.2% | fractional inhibitory concentration index (FICI) (Pseudomonas aeruginosa [9]): 0.375 | Activity (Escherichia coli [10]): Active | Activity (Escherichia coli [11]): Active | Activity (Escherichia coli [12]): 43.2% | Activity (Escherichia coli [13]): Active | fractional inhibitory concentration index (FICI) (Escherichia coli [14]): 0.3125 | Ratio (Escherichia coli [15]): 2 - 4 | Activity (Escherichia coli [16]): Active | MIC (Staphylococcus aureus [17]): 128 µM (≈ 342 µg/mL) | MIC (Bacillus subtilis): 4 µM (≈ 10.7 µg/mL) | MIC (Escherichia coli [18]): 16 µM (≈ 42.7 µg/mL) | inhibition (Staphylococcus aureus [19]): Dose-dependent effect | Ratio (Escherichia coli [20]): 2 - 4 | Ratio (Staphylococcus aureus [21]): 2 - 4 | inhibition (Pseudomonas aeruginosa [22]): Dose-dependent effect | Activity (Escherichia coli [23]): Active | MHC10 (Erythrocyte): > 256 µM | inhibition (Escherichia coli [24]): Dose-dependent effect | Activity (Escherichia coli [25]): Active | Activity (Escherichia coli [26]): Active | MIC (Escherichia coli [27]): 8 µM (≈ 21.3 µg/mL) | MIC (Pseudomonas aeruginosa [28]): 8 µM (≈ 21.3 µg/mL) | Activity (Escherichia coli [29]): Dose-dependent effect | selectivity ratio [30]: 5.91 | Activity (DNA): Dose-dependent effect | fractional inhibitory concentration index (FICI) (Escherichia coli [31]): 0.3125 | Activity (Escherichia coli [32]): Active | Ratio (Staphylococcus aureus [33]): 2 - 4 | Ratio (Staphylococcus aureus [34]): 2 - 4 | fractional inhibitory concentration index (FICI) (Klebsiella pneumoniae [35]): 0.3125 | fractional inhibitory concentration index (FICI) (Pseudomonas aeruginosa [36]): 0.375 | inhibition (Escherichia coli [37]): Active | Ratio (Staphylococcus aureus [38]): 2 - 4
